# According to paper PMC9230030, “Discovery of a Multifunctional Octapeptide from Lingzhi with Antioxidant and Tyrosinase Inhibitory Activity” (Pharmaceuticals, 2022):
# Ends that are not written are not given here.
# Key:
# [1] = Ferric reducing antioxidant power (FRAP) assay; conditions: octapeptide 1 mg/mL, 10 µL; 30 min room temperature in the dark, absorbance 593 nm; mean ± SD, n = 3
# Description: Since the antioxidant activity of a substance should be determined by different assays to study the radical scavenging mechanisms, the in vitro radical scavenging potential of the synthesized octapeptide was determined by three different common methods: 2,2-diphenyl-1-picrylhydrazyl (DPPH), 2,2′-azino-bis(3-ethylbenzothiazoline-6-sulfonate) (ABTS), and ferric reducing antioxidant power (FRAP) assays. […] The scavenging activities were calculated to be 0.121 ± 0.01 AsEAC and 0.173 ± 0.03 GaEAC for the DPPH and the ABTS assay, respectively.
# For the DPPH scavenging activity, 10 µL of the octapeptide (1 mg/mL) was mixed with 200 µL DPPH solution (0.2 mM in methanol). […] The DPPH scavenging activity of the samples was expressed as the ascorbic acid equivalent antioxidant capacity (AsEAC). For the ABTS scavenging activity, ABTS radical solution (7 mM ABTS stock solution with 2.45 mM potassium persulfate) was diluted in 5 mM phosphate buffer saline (Gibco, Waltham, MA, USA), pH 7.4, to acquire an absorbance of 0.50 at 734 nm before performing the assay. […] The absorbance of the mixture was evaluated at 734 nm. The ABTS scavenging activity of the samples was expressed as the gallic equivalent antioxidant capacity (GaEAC). […] The absorbance was measured at 593 nm. The FRAP scavenging activity of the samples was expressed as FeSO4 molar equivalents.
# [2] = test system: 5,6-dihydroxyindole-2-carboxylic acid oxidase; Tyrp1; experiment: Targeted proteomics in melanoma cells: Tyrp1; assay type: cell-based, Mus musculus; conditions: melanoma cells treated with octapeptide 50 μg/mL, 48 h, vs control; LC-MS/MS proteomics
# Description: (§1) Although using the tyrosinase enzyme extracted from a mushroom for an in vitro tyrosinase inhibitory assay has been widely studied as a routine screening for tyrosinase inhibition, tyrosinase from the mushroom is located in the cytoplasm and is different from the mammalian tyrosinase that is found on the membrane of melanocytes. Therefore, cell-based assays are also usually utilized to identify the potential tyrosinase inhibitor. In our study, the effects of the octapeptide at 50 μg/mL in melanoma cells was investigated by a proteomics approach. […]
# (§2) The Mus musculus skin melanoma cell line (B16-F10 ATCC, CRL-6475) and Cercopithecus aethiops kidney normal cell line (Vero ATCC, CCL-81) were used to explore the cell cytotoxicity. The effect of the octapeptide on the skin was evaluated in skin carcinoma cells. […] The cell viability was analyzed using the MTT (3-(4,5-dimethylthiazol-2-yl)-2,5-diphenyltetrazolium bromide) assay. […] After incubation for 24 h, the cell viability was measured by the optical absorbance at 630 and 570 nm using a microplate reader and transformed into the percentage of cell survival. […]
# (§3) The mzXML data were evaluated by the relative comparison of the peak intensities of each peptide ion in all datasets by DeCyder MS Differential Analysis software version 2.0 (GE Healthcare Co., Boston, MA, USA). […]
# mushroom tyrosinase = experiment: In vitro tyrosinase inhibition assay (dopachrome, absorbance at 475 nm); assay type: biochemical; conditions: octapeptide 0.05 mg/mL
# Description: To understand how the octapeptide modulates melanogenic enzymes, the activity of tyrosinase in the presence of the peptide was measured by the colorimetric assay. We used the time-dependent assay to confirm that the inhibition reaction occurred with dopachrome accumulation (absorbance at 475 nm). The time-dependent tyrosinase inhibition and the inhibition percentage of the octapeptide at a 50 ug/mL concentration are shown in Figure 2. The inhibitory effect of the octapeptide was determined against mushroom tyrosinase. The mixture of 10 µL of tyrosinase (20 enzyme unit/mL) in 50 mM phosphate buffer, pH 6.8, was added to 96-well plates containing 10 µL of the octapeptide (final concentration = 0.05 mg/mL), then 180 µL of 1 mM L-DOPA was added to start the reaction. […] Monitoring the inhibitory activity by measuring the absorbance at 475 nm for 60 min in a kinetic manner (reading every 1 min) using a microplate reader (Synergy H1, Biotek Inc., Winooski, VT, USA). The tyrosinase inhibitory activity was expressed as a percentage of inhibition at the end-point reaction (t = 60 min) by the equation. […] where Abssample is the absorbance of the reaction with the octapeptide and Absblank denotes the absorbance of the reaction without the testing sample (a buffer in each assay was added instead of the testing sample).
# [3] = test system: L-dopachrome tautomerase; Dct; experiment: Targeted proteomics in melanoma cells: Dct; assay type: cell-based, Mus musculus; conditions: melanoma cells treated with octapeptide 50 μg/mL, 48 h, vs control; LC-MS/MS proteomics
# Description: as §1, §2, §3
# [4] = test system: Ras-related protein Rab-7L1; Rab29; experiment: Targeted proteomics in melanoma cells: Rab29; assay type: cell-based, Mus musculus; conditions: melanoma cells treated with octapeptide 50 μg/mL, 48 h, vs control; LC-MS/MS proteomics
# Description: as §1, §2, §3
sequence,measurement,setting,value
"PVRSSNCA [octapeptide, Proline-Valine-Arginine-Serine-Serine-Asparaine-Cysteine-Alanine]","FRAP reductant ability, FeSO4 molar equivalents",[1],2.21 ± 0.23 mM equivalent to FeSO4
same,Relative Expression (Fold) of Tyrp1,[2],0.5034 Fold
same,tyrosinase inhibitory effect at end point (60 min),"mushroom tyrosinase; 1 mM L-DOPA, 50 mM phosphate buffer pH 6.8, 37 °C, t = 60 min, mean ± SD, n = 3",13.48 ± 2.12%
same,tyrosinase inhibitory effect during the first 30 min of the reaction,"mushroom tyrosinase; time-dependent assay, rate similar to control",not observed
same,Relative Expression (Fold) of Dct,[3],2.0460 Fold
same,Relative Expression (Fold) of Rab29,[4],2.0646 Fold
